Experiments:
Wistar rats = test: Oral glucose challenge (2 g/kg) in fasted rats, serum glucose by enzymatic method (Mutaratase-GOD); type: in vivo, rat; settings: male Wistar rats; for Blood Glucose at T0: fasted, agent given one hour before, sample immediately prior to oral glucose loading; for Blood Glucose at T90: 90 minutes post oral glucose challenge 2 g/kg; for Change in Blood Glucose: T0 to T90 after oral glucose 2 g/kg
Description: Groups of 5 male Wistar rats weighing 200+/−10 g were employed. Fasted animals were injected with agent or placebo (GLP-1, 1 nmole/kg, iv) and/or gavaged with agent or placebo (tissue kallikrein (SIGMA), 200 U) one hour prior to glucose challenge. A blood sample was taken immediately prior oral glucose loading (2 g/kg). At 90 minutes post glucose challenge a second blood sample was taken. The serum glucose samples were assessed by enzymatic method (Mutaratase-GOD) for the time points.

Sprague-Dawley rats = test: Euglycemic hyperinsulinemic clamp in rats made insulin resistant by a high-sucrose diet; type: in vivo, rat; settings: up to one unit by bolus IV injection, last hour of 2 h clamp, versus saline controls
Description: A litter of 14 Sprague-Dawley rats, (from Charles River, St-Constant, Canada), obtained at 5 weeks old are accommodated individually in cages. The animals are acclimatized to a temperature of 22° C.+/−1° C. and constant humidity and airflow conditions. The animals are fed a high sucrose diet. During the 2 weeks prior to experimentation, the animals have free access to tap water, are provided their controlled diet and their body weight and food intake are recorded every other day. The high-sucrose diet consists of 62.5% (wt/wt) sucrose, 6.5% corn oil, 20% protein (casein, purified high nitrogen), 0.3% dl-methionine, 1% vitamin mix, 4.7% mineral mix and 5% cellulose. The energy density of the high-sucrose diet is 16.81 kJ/g. This high-sucrose diet induces insulin resistance. […]
Analytical Methods—The rats are anesthetized and venous blood samples are taken for plasma glucose and insulin assessment and rapidly centrifuged. […] Resting heart rate, blood pressure and regional blood flows are recorded over 30 minutes in quiet, unrestrained and unsedated rats.
Euglycemic Clamp Methodology—All rats receive an infusion of regular porcine insulin at a rate of 16 mU·kg^−1·min^−1 for 2 hours. […] The Euglycemic hyperinsulinemic clamp is performed over 2 hours, while blood pressure, heart rate, and regional blood flow is measured continuously with blood samples. […]

Substance: glucagon like peptide 1 [GLP-1]
- Blood Glucose at T0 (Wistar rats): 110 mg/dL
- Blood Glucose at T90 (Wistar rats): 216 mg/dL
- Change in Blood Glucose (Wistar rats): 116.1 ± 18.1 mg/dL

Substance: kallikrein
- Area under the curve of glucose required to maintain euglycemia (index of insulin sensitivity) (Sprague-Dawley rats): greater area under the curve

Substance: tissue kallikrein [tissue kallkrein]
- Blood Glucose at T0 (Wistar rats): 109 mg/dL
- Blood Glucose at T90 (Wistar rats): 229 mg/dL
- Change in Blood Glucose (Wistar rats): 120.2 ± 20.7 mg/dL

Source: patent US20130280235A1, “METHODS OF DIAGNOSIS AND TREATMENT FOR METABOLIC DISORDERS” (DiaMedica Inc., priority 2006, published 2013)
